The target of this experiment is T1, human plasma protein factor Xa (Homo sapiens, UniProt P00742).
T1 construct: measure proteolytic activity of the enzyme (factor Xa); purchased Haematologic Technologies (Essex Junction, Vt.); host or cells: human plasma
Kind of experiment: Factor Xa IC50 determination (cleavage of chromogenic substrate S-2765). The format is biochemical. The note with it: fXa 1 nM, S-2765 100 μM, Tris buffered saline pH 7.4, room temperature. An excerpt:
This example illustrates methods for evaluating the compounds of the invention, along with results obtained for such assays. The in vitro and in vivo Factor Xa isoform activities of the inventive compounds can be determined by various procedures known in the art, such as a test for their ability to inhibit the activity of the Factor Xa isoform. […] The IC50 value is the concentration (in nM) of the compound required to provide 50% inhibition of Factor Xa isoform.
An in vitro assay for detecting and measuring inhibition activity against Factor Xa is as follows:
• The substrate S-2765 (Z-D-Arg-Gly-Arg-pNA.HCl) was obtained from Diapharma (West Chester, Ohio). Enzyme: • The human plasma protein factor Xa was purchased from Haematologic Technologies (Essex Junction, Vt.). Methods
All assays, which are performed in 96-well microtiter plates, measure proteolytic activity of the enzyme (factor Xa) by following cleavage of paranitroanilide substrate. The assay buffer used for proteolytic assays was Tris buffered saline (20 mM Tris, 150 mM NaCl, 5 mM CaCl2, 0.1% Bovine serum albumin (BSA), 5% Dimethly Sulfoxide (DMSO) pH 7.4). In a 96-well microtiter plate, inhibitor was serially diluted to give a range of concentrations from 0.01 nM to 10 μM (final). Duplicate sets of wells were assayed and control wells without inhibitor were included. Enzyme was added to each well,(fXa concentration=1nM), the plate was shaken for 5 seconds and then incubated for 5 minutes at room temperature. S2765 was added (100 μM final) and the plate was shaken for 5 seconds (final liquid volume in each well was 200 μl). The degree of substrate hydrolysis was measured at 405 nm on a Thermomax plate reader (Molecular Devices, Sunnyvale, Calif.) for 2 minutes. The initial velocities (mOD/min), for each range of inhibitor concentrations, were fitted to a four parameter equation using Softmax data analysis software. The parameter C, derived from the resulting curve-fit, corresponded to the concentration for half maximal inhibition (IC50).

This is an account of results in patent US7678913B2, “Ureas as factor Xa inhibitors” (Portola Pharmaceuticals, Inc., priority 2004, dated 2010).

pIC50: −log10 of the molar value. A value given as a limit tells only on which side of the number the result lay.

Broadly, the pIC50 is −log10 of the IC50, conventionally taken in molar units. Low readings indicate a high IC50, high ones a low IC50.

T1 sequence (P00742 235-488 limits assumed): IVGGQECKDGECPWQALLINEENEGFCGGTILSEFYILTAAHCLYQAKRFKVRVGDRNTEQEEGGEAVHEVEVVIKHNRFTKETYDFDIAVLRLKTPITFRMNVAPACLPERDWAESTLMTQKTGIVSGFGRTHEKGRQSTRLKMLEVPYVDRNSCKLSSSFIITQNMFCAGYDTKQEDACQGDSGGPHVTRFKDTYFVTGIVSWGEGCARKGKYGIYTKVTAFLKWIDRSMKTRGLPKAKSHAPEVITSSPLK
T1 sequence (P00742 41-179 partner limits assumed): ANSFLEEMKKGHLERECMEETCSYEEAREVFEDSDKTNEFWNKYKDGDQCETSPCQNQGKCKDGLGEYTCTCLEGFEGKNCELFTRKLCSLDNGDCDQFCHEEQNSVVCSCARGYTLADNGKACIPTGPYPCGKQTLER

`CN(C)Cc1ccccc1-c1ccc(NC(=O)C(NC(=O)Nc2ccc(Br)cc2)c2ccccc2F)c(F)c1` (stereo not drawn) [Example 57, N-[4-(2-dimethylaminomethyl-phenyl)-2-fluorophenyl]-2-(2-fluorophenyl)-2-(4-bromophenylaminocarbonylamino)-acetamide] gave a pIC50 of at least 7.00.

Compound `CC(=N)N1CCC(CNC(=O)C(NC(=O)Nc2ccc(Cl)cc2)c2ccccc2F)CC1` (stereo not drawn) [Example 54, N-[(N-acetimidyl-piperidin-4-yl)methyl]-2-(2-fluorophenyl)-2-(4-chlorophenylaminocarbonylamino)-acetamide] gave a pIC50 of 6.30 to 7.00.

Take `Cc1ccccc1C(NC(=O)Nc1ccc(Cl)cc1)C(=O)Nc1ccc(C(=O)N2CCOC2)cc1` (stereo not drawn) [Example 98, N-[4-(oxazolidin-3-ylcarbonyl)phenyl]-2-(2-methylphenyl)-2-(4-chlorophenylaminocarbonylamino)-acetamide]: the pIC50 was at least 7.00.

For the compound `N=C(c1ccc(NC(=O)C(NC(=O)Nc2ccc(Cl)cc2)c2ccccc2)cc1)N1CCCC1` (stereo not drawn) [Example 29], the pIC50 was at least 7.00.

As for `CN(C)NC(=N)c1ccc(NC(=O)C(NC(=O)Nc2ccc(Cl)cc2)c2ccccc2F)c(F)c1` (stereo not drawn) [Example 48, N-[4-(2,2-dimethylhydrazinoimino)-2-fluorophenyl]-2-(2-fluorophenyl)-2-(4-chlorophenylaminocarbonylamino)-acetamide], the pIC50 was 6.30 to 7.00.

Compound `N=C(c1ccc(N2C(=O)C(NC(=O)Nc3ccc(Cl)cc3)Cc3ccccc32)cc1)N1CCCC1` (stereo not drawn) [Example 135] had a pIC50 of at most 6.30.

`Cc1ccccc1C(NC(=O)Nc1ccc(Cl)cc1)C(=O)NC1CCN(C(C)C)CC1` (stereo not drawn) [Example 90, N-(1-isopropylpiperidin-4-yl)-2-(2-methylphenyl)-2-(4-chlorophenylamino-carbonylamino)-acetamide] gave a pIC50 of at most 6.30.

With `O=C(Nc1ccc(Cl)cc1)NC(C(=O)N1CCC(N2CCCCC2=O)CC1)c1ccccc1F` (stereo not drawn) [Example 149, 4-(2-piperidinon-1-yl)piperidin-1-yl-2-(2-fluorophenyl)-2-(4-chlorophenylaminocarbonylamino)-acetamide], the negative-log IC50 (pIC50) was at least 7.00.

As for `CN1CCN=C1c1ccc(NC(=O)[C@@H](CC(=O)O)NC(=O)Nc2ccc(Cl)cc2)cc1` [Example 62, (2R) N-[4-(1-methyl-4,5-dihydro-1H-imidazol-2-yl)phenyl]-2-carboxymethyl-2-(4-chlorophenylaminocarbonylamino)-acetamide], the pIC50 is 6.30 to 7.00.

For `CC(C)N1CCC(NC(=O)C(NC(=O)Nc2ccc(Cl)cc2)c2ccccc2Br)CC1` (stereo not drawn) [Example 82, N-(1-isopropylpiperidin-4-yl)-2-(2-bromophenyl)-2-(4-chlorophenylamino-carbonylamino)-acetamide], the pIC50 was at most 6.30.

Take `CN(C)Cc1ccccc1-c1ccc(NC(=O)C(NC(=O)Nc2ccc(Cl)cc2)c2ccccc2F)c(F)c1` (stereo not drawn) [Example 56, N-[4-(2-dimethylaminomethyl-phenyl)-2-fluorophenyl]-2-(2-fluorophenyl)-2-(4-chlorophenylaminocarbonylamino)-acetamide]: the negative logarithm of the IC50 (pIC50) is at least 7.00.

With `CN1CCN=C1c1ccc(NC(=O)C(NC(=O)Nc2ccc(Cl)cc2)(c2ccccc2)c2ccccc2)cc1` [Example 14, N-[4-(1-methyl-4,5-dihydro-1H-imidazol-2-yl)phenyl]-2,2-diphenyl-2-(4-chlorophenylaminocarbonylamino)-acetamide], the pIC50 was at most 6.30.

In the case of `CN(C)C(=N)c1ccc(NC(=O)C(NC(=O)Nc2ccc(Cl)cc2)c2ccccc2)c(F)c1` (stereo not drawn) [Example 33, N-[4-(dimethylaminoimino)-2-fluorophenyl]-2-phenyl-2-(4-chlorophenylaminocarbonylamino)-acetamide], the pIC50 was at least 7.00.

`CN1CCN=C1c1ccc(NC(=O)C(CC(=O)Nc2ccccc2)NC(=O)Nc2ccc(Cl)cc2)cc1` (stereo not drawn) [Example 73, N-[4-(1-methyl-4,5-dihydro-1H-imidazol-2-yl)phenyl]-2-(phenylamino-carbonylmethyl)-2-(4-chlorophenylaminocarbonylamino)-acetamide]: the pIC50 is 6.30 to 7.00.

Take `Cc1ccccc1C(NC(=O)Nc1ccc(Cl)cc1)C(=O)Nc1ccc(N2CCCN(C)CC2)cc1` (stereo not drawn) [Example 92, N-[4-(4-methyl-homopiperazinyl)phenyl]-2-(2-methylphenyl)-2-(4-chlorophenylaminocarbonylamino)-acetamide]: the pIC50 is at least 7.00.

Take `CN(C)C(=N)c1ccc(NC(=O)C(NC(=O)Nc2ccc(Cl)cc2)c2ccccc2Br)cc1` (stereo not drawn) [Example 80, N-[4-(dimethylaminoimino)phenyl]-2-(2-bromophenyl)-2-(4-chlorophenylaminocarbonylamino)-acetamide]: the pIC50 is at least 7.00.

`O=C(Nc1ccc(Cl)cc1)N[C@@H](C(=O)N1CCC(N2CCOCC2=O)CC1)c1ccccc1` [Example 142, (2R) 4-(3-morpholinon-4-yl)piperidin-1-yl-2-phenyl-2-(4-chlorophenylaminocarbonylamino)-acetamide] gave a pIC50 of at least 7.00.

As for `CCN(C)C(=N)c1ccc(NC(=O)C(NC(=O)Nc2ccc(Cl)cc2)c2cccs2)cc1` (stereo not drawn) [Example 20, N-[4-(N-methyl-N-ethylaminoimino)phenyl]-2-(2-thienyl)-2-(4-chlorophenylaminocarbonylamino)-acetamide], the pIC50 was at least 7.00.

Regarding `CN1CCCN(c2ccc(NC(=O)C(NC(=O)Nc3ccc(Cl)cc3)c3ccccc3Cl)cc2)CC1` (stereo not drawn) [Example 102, N-[4-(4-methyl-homopiperazinyl)phenyl]-2-(2-chlorophenyl)-2-(4-chlorophenylaminocarbonylamino)-acetamide], the pIC50 is at least 7.00.

`N=C(c1ccc(NC(=O)C(NC(=O)Nc2ccc(Cl)cc2)c2ccccc2Cl)cc1)N1CCCC1` (stereo not drawn) [Example 101]: the pIC50 was at least 7.00.

As for `Cc1ccccc1C(NC(=O)Nc1ccc(Cl)cc1)C(=O)Nc1ccc(N2CCOCC2=O)cc1` (stereo not drawn) [Example 95, N-[4-(3-oxo-morpholin-4-yl)phenyl]-2-(2-methylphenyl)-2-(4-chlorophenylaminocarbonylamino)-acetamide], the pIC50 was at least 7.00.

`CC(C)N1CCC(NC(=O)C(NC(=O)Nc2ccc(Cl)cc2)c2ccccc2Cl)CC1` (stereo not drawn) [Example 103, N-(1-isopropylpiperidin-4-yl)-2-(2-chlorophenyl)-2-(4-chlorophenylamino-carbonylamino)-acetamide] had a pIC50 of at most 6.30.

For the compound `CN1CCN=C1c1ccc(NC(=O)C(NC(=O)Nc2ccc(Cl)cc2)c2ccccc2Oc2ccccc2)cc1` (stereo not drawn) [Example 124, N-[4-(1-methyl-4,5-dihydro-1H-imidazol-2-yl)phenyl]-2-(2-phenoxyphenyl)-2-(4-chlorophenylaminocarbonylamino)-acetamide], the pIC50 was at least 7.00.

As to `C=CCN(C)C(=N)c1ccc(NC(=O)C(NC(=O)Nc2ccc(Cl)cc2)c2ccccc2)c(F)c1` (stereo not drawn) [Example 35, N-[4-(N-methyl-N-allylaminoimino)-2-fluorophenyl]-2-phenyl-2-(4-chlorophenylaminocarbonylamino)-acetamide], the pIC50 was at least 7.00.

`COc1ccccc1C(NC(=O)Nc1ccc(Cl)cc1)C(=O)N1CCN(C2CCCN(C)CC2)CC1` (stereo not drawn) [Example 153, 4-(1-methylhomopiperidin-4-yl)piperazin-1-yl-2-(2-methoxyphenyl)-2-(4-chlorophenylaminocarbonylamino)-acetamide] gave a pIC50 of at least 7.00.

`N=C(c1ccc(NC(=O)C(NC(=O)Nc2ccc(Cl)cc2)c2ccccc2F)c(F)c1)N1CCCC1` (stereo not drawn) [Example 47] gave a pIC50 of at least 7.00.

The compound `COc1ccccc1C(NC(=O)Nc1ccc(Cl)cc1)C(=O)N1CCC(N2CCOCC2=O)CC1` (stereo not drawn) [Example 148, 4-(3-morpholinon-4-yl)piperidin-1-yl-2-(2-methoxyphenyl)-2-(4-chlorophenylaminocarbonylamino)-acetamide] showed a pIC50 of at least 7.00.

In turn, `CN1CCN=C1c1ccc(NC(=O)C(NC(=O)Nc2ccc(F)cc2)c2cccs2)cc1` (stereo not drawn) [Example 17, N-[4-(1-methyl-4,5-dihydro-1H-imidazol-2-yl)phenyl]-2-(2-thienyl)-2-(4-fluorophenylaminocarbonylamino)-acetamide] gave a pIC50 of 6.30 to 7.00.

In turn, `CN1CCN=C1c1ccc(NC(=O)C(NC(=O)Nc2ccc(Cl)cc2)c2ccccc2F)cc1` (stereo not drawn) [Example 11, N-[4-(1-methyl-4,5-dihydro-1H-imidazol-2-yl)phenyl]-2-(2-fluorophenyl)-2-(4-chlorophenylaminocarbonylamino)-acetamide] gave a pIC50 of at least 7.00.

With `C#Cc1ccc(NC(=O)NC(C(=O)Nc2ccc(C3=NCCN3C)cc2)c2cccs2)cc1` (stereo not drawn) [Example 18, N-[4-(1-methyl-4,5-dihydro-1H-imidazol-2-yl)phenyl]-2-(2-thienyl)-2-(4-ethynylphenylaminocarbonylamino)-acetamide], the negative logarithm of the IC50 (pIC50) was 6.30 to 7.00.
